Reference: patent US20240041877A1, “DOSAGE REGIME AND METHOD FOR TREATING PULMONARY ARTERIAL HYPERTENSION” (Altavant Sciences GmbH, priority 2019, published 2024)

Key:
Type in all cases: in vivo, human
[1] = test system: plasma 5-HIAA (a PD marker of 5-HT synthesis); test: Part 2 (MAD) biomarker: plasma 5-HIAA change from Day 1 predose; settings: for mean reduction from Day 1 to Day 14 in plasma 5-HIAA: KAR5585 100 mg BID
Excerpt: (§1) Biomarkers were to be evaluated in Part 2 by measuring concentrations of serotonin (5-hydroxytryptamine [5-HT]) in serum and 5-hydroxyindoleacetic acid (5-HIAA) in plasma and urine. As well, the relationship of biomarkers to PK parameters was to be evaluated.
(§2) The biomarker analysis was to be based on the Biomarker Population (all subjects with evaluable biomarker measurements at baseline [Day 1 predose] and at least one after dosing [Day 7 or Day 14]).
(§3) Biomarker data were to be collected only in Part 2. The following biomarkers were to be analyzed: • Serum 5-HT • Plasma 5-HIAA • Urine 5-HIAA/24 hours (as measured, adjusted, estimated, and per gram creatinine)
The a priori primary biomarker endpoint was to be the change in plasma 5-HIAA concentration on Day 14 from Day 1.
(§4) Summary statistics (mean, standard deviation [SD], median, minimum [Min], and maximum [Max]) were to be tabulated for each biomarker, by Cohort, with absolute and relative (%) changes from Day 1 predose.
(§5) The values were to be tabulated with P values testing whether the difference of changes was equal to 0.
(§6) The biomarker portion of the study was conducted in Part 2 MAD using the Biomarker Population. The biomarkers evaluated were serum 5-HT and plasma 5-HIAA, as well as urine 5-HIAA/24 hours (as measured, adjusted, estimated, and per gram creatinine). Urinary 5-HIAA was determined by a validated (21 C.F.R. 58, GLP-compliant) method using liquid chromatographic separation and tandem mass spectrometry detection.

serum 5-HT = test: Part 2 (MAD) biomarker: serum 5-HT change from Day 1 predose
Excerpt: as §1, §2, §3, §4, §5, §6

[2] = Safety and tolerability in healthy adult subjects (SAD and MAD)
[3] = all doses pooled, predose Day 7
[4] = all doses pooled, predose Day 14

Which results are given for `CCOC(=O)[C@@H]1CC2(CCN(c3cc(O[C@H](c4ccc(Cl)cc4-c4ccccc4)C(F)(F)F)nc(N)n3)CC2)CN1` [KAR5585, (S)-ethyl 8-(2-amino-6-((R)-1-(5-chloro-[1,1′-biphenyl]-2-yl)-2,2,2-trifluoroethoxy)pyrimidin-4-yl)-2,8-diazaspiro[4.5]decane-3-carboxylate]?
Plasma 5-HIAA: mean difference of absolute change from Day 1 between KAR5585 and placebo ([1]; 200 mg fed, predose Day 14): -5.25 ng/mL; Plasma 5-HIAA: mean difference of % change from Day 1 between KAR5585 and placebo ([1]; 400 mg fed, predose Day 7): −76.47%; Plasma 5-HIAA: mean difference of absolute change from Day 1 between KAR5585 and placebo ([1]; 400 mg fed, predose Day 7): -11.44 ng/mL; Plasma 5-HIAA: mean difference of % change from Day 1 between KAR5585 and placebo ([1]; 400 mg fed, predose Day 14): −73.45%; Plasma 5-HIAA: mean difference of absolute change from Day 1 between KAR5585 and placebo ([1]; 400 mg fed, predose Day 14): -10.69 ng/mL; mean reduction from Day 1 to Day 14 in plasma 5-HIAA ([1]; fasting): −28.71%; mean reduction from Day 1 to Day 14 in plasma 5-HIAA ([1]; fed): −32.58%; mean percent change in plasma 5-HIAA from Day 1 to Day 7 ([1]; KAR5585 400 mg BID, fed): −56.67%; mean percent change in plasma 5-HIAA concentration from Day 1 to Day 14 ([1]; KAR5585 400 mg BID, fed, listed as KAR5575): −53.33%; Plasma 5-HIAA: mean difference of % change from Day 1 between KAR5585 and placebo [1, 3]: −22.33%; Plasma 5-HIAA: mean difference of absolute change from Day 1 between KAR5585 and placebo [1, 3]: -3.61 ng/mL; Plasma 5-HIAA: mean difference of % change from Day 1 between KAR5585 and placebo [1, 4]: −57.11%; Plasma 5-HIAA: mean difference of absolute change from Day 1 between KAR5585 and placebo [1, 4]: -6.69 ng/mL; mean difference vs placebo of absolute and percent changes from Day 1 to Day 14 in plasma 5-HIAA, significance ([1]; each dose group and all doses combined): statistically significant in favor of KAR5585 compared to placebo in each dose group and for all doses combined at Day 14; Serum 5-HT: mean difference of % change from Day 1 between KAR5585 and placebo (serum 5-HT; 100 mg fasting, predose Day 7): −10.97%; Serum 5-HT: mean difference of absolute change from Day 1 between KAR5585 and placebo (serum 5-HT; 100 mg fasting, predose Day 7): -12.97 ng/mL; Serum 5-HT: mean difference of % change from Day 1 between KAR5585 and placebo (serum 5-HT; 100 mg fasting, predose Day 14): −15.92%; Serum 5-HT: mean difference of absolute change from Day 1 between KAR5585 and placebo (serum 5-HT; 100 mg fasting, predose Day 14): -17.39 ng/mL; Serum 5-HT: mean difference of % change from Day 1 between KAR5585 and placebo (serum 5-HT; 100 mg fed, predose Day 7): −11.02%; Serum 5-HT: mean difference of absolute change from Day 1 between KAR5585 and placebo (serum 5-HT; 100 mg fed, predose Day 7): -15.75 ng/mL; Serum 5-HT: mean difference of % change from Day 1 between KAR5585 and placebo (serum 5-HT; 100 mg fed, predose Day 14): −0.47%; Serum 5-HT: mean difference of absolute change from Day 1 between KAR5585 and placebo (serum 5-HT; 100 mg fed, predose Day 14): 5.08 ng/mL; Serum 5-HT: mean difference of % change from Day 1 between KAR5585 and placebo (serum 5-HT; 200 mg fed, predose Day 7): −21.64%; Serum 5-HT: mean difference of absolute change from Day 1 between KAR5585 and placebo (serum 5-HT; 200 mg fed, predose Day 7): -28.53 ng/mL; Serum 5-HT: mean difference of % change from Day 1 between KAR5585 and placebo (serum 5-HT; 200 mg fed, predose Day 14): −11.43%; Serum 5-HT: mean difference of absolute change from Day 1 between KAR5585 and placebo (serum 5-HT; 200 mg fed, predose Day 14): -5.79 ng/mL; Serum 5-HT: mean difference of % change from Day 1 between KAR5585 and placebo (serum 5-HT; 400 mg fed, predose Day 7): 2.09%; Serum 5-HT: mean difference of absolute change from Day 1 between KAR5585 and placebo (serum 5-HT; 400 mg fed, predose Day 7): 16.47 ng/mL; Serum 5-HT: mean difference of % change from Day 1 between KAR5585 and placebo (serum 5-HT; 400 mg fed, predose Day 14): −50.02%; Serum 5-HT: mean difference of absolute change from Day 1 between KAR5585 and placebo (serum 5-HT; 400 mg fed, predose Day 14): -84.50 ng/mL; mean difference vs placebo of percent changes from Day 1 in serum 5-HT concentration, significance (serum 5-HT; Day 7): statistically significant compared to placebo on Day 7 in favor of the 200 mg fed dose group; Serum 5-HT: mean difference of % change from Day 1 between KAR5585 and placebo (serum 5-HT; [3]): −10.39%; Serum 5-HT: mean difference of absolute change from Day 1 between KAR5585 and placebo (serum 5-HT; [3]): -10.19 ng/mL; Serum 5-HT: mean difference of % change from Day 1 between KAR5585 and placebo (serum 5-HT; [4]): −20.26%; Serum 5-HT: mean difference of absolute change from Day 1 between KAR5585 and placebo (serum 5-HT; [4]): -27.14 ng/mL; safety and tolerability ([2]; 100 mg (fasting), 100, 200, 400 mg (fed) BID up to 14 days, 36 healthy adult subjects): safe and well-tolerated; tolerability ([2]; 400 mg single oral dose, fed, 9 healthy adult subjects): well-tolerated; tolerability, whole trial ([2]; Part 1 and Part 2, all doses): well tolerated throughout the trial; safety and tolerability ([2]; single ascending oral dose 100-2000 mg, fasting, 54 healthy adult subjects): safe and well-tolerated
